{"source": "patent US20230312646A1", "about": "“ANTIBACTERIAL PEPTIDES” (priority 2020, published 2023)", "key": {"[1]": {"biological_target": "T1, Escherichia coli SC (^EcSC) (Escherichia coli, UniProt P0A988)", "T1 construct": "His tag (inferred from the pET15b vector and Ni-NTA purification) (N); made in house; host or cells: E. coli", "T1 sequence (P0A988 whole entry)": "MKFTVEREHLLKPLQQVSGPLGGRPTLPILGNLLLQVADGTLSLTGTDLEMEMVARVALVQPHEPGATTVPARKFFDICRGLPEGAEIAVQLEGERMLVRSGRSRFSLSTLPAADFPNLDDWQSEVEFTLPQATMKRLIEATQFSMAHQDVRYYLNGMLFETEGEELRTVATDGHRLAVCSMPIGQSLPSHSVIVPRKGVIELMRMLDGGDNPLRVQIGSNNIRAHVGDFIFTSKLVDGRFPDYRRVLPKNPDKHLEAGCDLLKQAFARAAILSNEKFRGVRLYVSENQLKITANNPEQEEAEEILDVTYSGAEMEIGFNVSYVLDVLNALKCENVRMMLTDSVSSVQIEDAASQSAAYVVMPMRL", "assay": "biochemical", "type": "binding", "procedure": "The procedure has been described previously (Wolff, P.; Oliéric, V.; Briand, J. P.; Chaloin, O.; Dejaegere, A.; Dumas, P.; Ennifar, E.; Guichard, G.; Wagner, J.; Burnouf, D. Y., Structure-Based Design of Short Peptide Ligands Binding onto the E. coli Processivity Ring. J. Med. Chem. 2011, 54 (13), 4627-4637). Briefly, E.coli cells were transformed with plasmids pET15b containing the dnaN gene from E. coli and were grown in LB at 37° C. to OD 0.5, then induced by IPTG (0.1 mM) at 28° C. overnight. dnaN proteins fractions were first enriched on a Ni-NTA column, eluted with a histidine step (300 mM) and further purified on a Source Q column in buffer containing 20 mM Tris HCI pH 7.5, 0.5 mM EDTA and 10% (v/v) glycerol, using a gradient from 0 to 0.5 M NaCl. After a final ultracentrifugation (45 K, 1 h, 20° C.), soluble proteins were concentrated on a Centricon 30 K (Millipore) in the same buffer and stored at 4° C. in 2 M ammonium sulfate. Buffer exchange was performed on Centrikon 10 K at 4° C. before use and protein quality was assessed by DLS.\n(§1) ITC experiments were performed using an iTC200 or a PEAQ-ITC instrument (Microcal Malvern Panalytical). Peptides (300 or 600 µM) were titrated at 25° C. by sequential injections (usually 2 µl each) into an SC solution (30 or 60 µM). Data were corrected for heat of injection by subtracting the signal of the titration of peptides into proteiN-free buffer solution (Hepes 10 mM pH 7.4, NaCl 0.15 M, EDTA 3 mM). Each titration was performed at least twice. Analyses of experimental data were performed following a classical treatment with the AFFINImeter software (https://www.affinimeter.com; S4S, Santiago de Compostela, Spain). In addition, kinetic information was obtained in some cases with kinITC as implemented in the software AFFINImeter.\nAll newly synthesized peptides were tested for their interaction with ^EcSC by ITC at 25° C. As a general rule, all thermodynamic profiles reveal an exothermic interaction, and a non-favorable entropic component. The resulting negative Gibb’s free energies characterize a spontaneous interaction. The analysis of raw data by the Affinimeter® software also gave access to kinetics rate constant of the interaction."}, "[2]": {"biological_target": "T2, clamps from Pseudomonas aeruginosa (^PaSC) (Pseudomonas aeruginosa, UniProt Q9I7C4)", "T2 construct": "made in house", "T2 sequence (Q9I7C4 whole entry)": "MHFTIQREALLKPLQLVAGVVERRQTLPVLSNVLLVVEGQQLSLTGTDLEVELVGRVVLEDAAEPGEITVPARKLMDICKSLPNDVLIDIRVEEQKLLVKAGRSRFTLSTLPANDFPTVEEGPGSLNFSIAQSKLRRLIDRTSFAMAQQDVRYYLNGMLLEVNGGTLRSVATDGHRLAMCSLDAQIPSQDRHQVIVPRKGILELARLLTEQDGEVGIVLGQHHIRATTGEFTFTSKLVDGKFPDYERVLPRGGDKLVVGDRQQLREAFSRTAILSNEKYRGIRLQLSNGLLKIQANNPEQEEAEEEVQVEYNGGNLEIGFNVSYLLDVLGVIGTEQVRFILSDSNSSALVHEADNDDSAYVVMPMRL", "assay": "ITC of peptides with P. aeruginosa clamp", "type": "binding", "conditions": "for Kd: ITC at 25° C., means of three independant experiments, standard deviations in brackets", "procedure": "as §1\n(§2) Protein quality was assessed by DLS. The purification of clamps from other bacteria used the same procedure.\n(§3) The bacterial sliding clamps present a highly conserved binding site among bacterial species. […] All these species belong to the ESKAPE group and are in the first priority bacteria list established by the World Health Organization for which new antibiotics are urgently needed."}, "[3]": {"biological_target": "clamps from Acinetobacter baumannii (^AbSC)", "assay": "ITC of peptides with A. baumannii clamp", "type": "binding", "conditions": "ITC at 25° C.; means of three independant experiments, standard deviations in brackets; read-out: affinities (Kd in nM), A. baumannii", "procedure": "as §1, §2, §3"}, "[4]": {"biological_target": "^EcSC (Escherichia coli, UniProt P0A988)", "sequence (P0A988 whole entry)": "as the sequence (P0A988 whole entry) above", "conditions": "SPR, J. Med. Chem. 2011; read-out: Kd previously determined by SPR; cited from earlier work"}, "[5]": {"test_system": "Escherichia coli D22", "assay": "MIC assay, E. coli", "type": "cell-based", "conditions": "MH broth, 37° C., 18-20 hours", "procedure": "(§4) Antimicrobial activity of peptide 5d was assessed through the measurement of the Minimal Inhibition Concentration (MIC). MIC assays were performed in duplicate in 96-well microtiter plates on the basis of the protocol recommended by the Clinical and Laboratory Standards Institute. Laboratory strains of Escherichia coli D22, Bacillus subtilis 168 and Stpaphylococcus aureus HG001were cultivated on either LB-agar plates or liquid 1x Mueller Hinton broth. Briefly, a mix of 3-4 fresh (less than 36 hours) colonies grown on LB-agar plates were inoculated in 3 ml of MH broth and incubated for about 4 h at 37° C. under agitation. Dilution of these cultures to an OD600 nm of 0.002 was made in MH broth. Within a time laps not exceeding 30 min, 50 µl of this cell suspension was added to 50 µl of MH broth (containing or not serial dilutions of the peptide 5 d in MH broth) in wells of a 96-well round bottom microwell plate (Greiner; final cell density of about 5 × 10^5 cfu/ml). Plates were incubated at 37° C. for 18-20 hours. MIC was defined as the minimal antibiotic concentration that results in no visible growth of the strain in the micotiter plate well."}, "[6]": {"test_system": "Bacillus subtilis 168", "type": "cell-based", "procedure": "as §4"}, "[7]": {"test_system": "Stpaphylococcus aureus HG001", "type": "cell-based, S. aureus", "procedure": "as §4"}, "[8]": {"conditions": "affinities (Kd in nM), E.coli, ITC at 25° C., means of three independant experiments, standard deviations in brackets"}, "[9]": {"conditions": "read-out: affinities (Kd in nM), P. aeruginosa"}, "[10]": {"conditions": "Kd (nM), ITC at 298.15 K (25° C.)"}}, "note": "pKd: −log10 of the molar value. Read-outs that look alike come from different tables or passages of the source. Square brackets hold non-standard residues; d marks the D form. Peptide text beside a SMILES is read from it. * marks the point of attachment. Acryloyl(3-(3-pyridyl),E) = O=C(/C=C/c1cccnc1)*; Phe(3,4-Cl2) = N[C@@H](Cc1ccc(Cl)c(Cl)c1)C(=O)O; Oic = O=C(O)[C@@H]1C[C@@H]2CCCC[C@@H]2N1; dNMeR = CN[C@H](CCCNC(=N)N)C(=O)O; Tridecanoyl = CCCCCCCCCCCCC(=O)*; Cha = N[C@@H](CC1CCCCC1)C(=O)O; NMeD = CN[C@@H](CC(=O)O)C(=O)O; NMeDab = CN[C@@H](CCN)C(=O)O", "data": [{"smiles": "CC(=O)N[C@@H](CCC(N)=O)C(=O)N[C@@H](CC1CCCCC1)C(=O)N[C@@H](CC(=O)O)C(=O)N[C@@H](CC(C)C)C(=O)N[C@@H](Cc1ccccc1)C(=O)O", "note": "[P1, Ac-Gln-Cha-Asp-Leu-Phe-OH, reference compound] (Ac-Q[Cha]DLF-OH)", "values": [{"measurement": "ΔG", "setting": "[1]; ITC at 25° C.", "value": -9.2, "unit": "kcal/mol"}, {"measurement": "ΔG (kcal/mol)", "setting": "[1]; ITC at 298.15 K (25° C.)", "value": "-9.2 (± 0.2) kcal/mol"}, {"measurement": "Kd", "setting": "[1]; [8]", "value": 170, "unit": "nM"}, {"measurement": "kon", "setting": "[1]; read-out: kon (M^-1.s^-1)", "value": 40000, "unit": "M⁻¹ s⁻¹"}, {"measurement": "Kd", "setting": "[2]; [9]", "value": 600, "unit": "nM"}, {"measurement": "Kd", "setting": "[3]", "value": 655, "unit": "nM"}, {"measurement": "pKd", "setting": "[4]", "value": 6.77}]}, {"smiles": "CC(C)C[C@H](NC(=O)[C@H](CC(=O)O)N(C)C(=O)[C@H](CC1CCCCC1)NC(=O)[C@H](CCC(N)=O)NC(=O)/C=C/c1cccnc1)C(=O)N[C@@H](Cc1ccc(Cl)c(Cl)c1)C(=O)O", "note": "[P38] ({Acryloyl(3-(3-pyridyl),E)}-Q[Cha][NMeD]L[Phe(3,4-Cl2)]-OH)", "values": [{"measurement": "Kd", "setting": "[1]; [10]", "value": 46, "unit": "nM"}, {"measurement": "Kd", "setting": "[1]; [8]", "value": 45, "unit": "nM"}, {"measurement": "kon", "setting": "[1]; read-out: kon (M^-1 s^-1)", "value": 110000, "unit": "M⁻¹ s⁻¹"}, {"measurement": "Kd", "setting": "[2]; [9]", "value": 120, "unit": "nM"}, {"measurement": "pKd", "setting": "[2]; range over ^PaSC and ^AbSC, read-out: affinity for these clamps (^PaSC and ^AbSC)", "value": "6.77 to 6.92"}]}, {"smiles": "CCCCCCCCCCCCC(=O)N(C)[C@H](CCCNC(=N)N)C(=O)N[C@@H](CCC(N)=O)C(=O)N[C@@H](CC1CCCCC1)C(=O)N(C)[C@@H](CCNC(C)=O)C(=O)N[C@@H](CC(C)C)C(=O)N[C@@H](Cc1ccc(Cl)c(Cl)c1)C(N)=O", "note": "[Peptide 5d] (Tridecanoyl-[dNMeR]Q[Cha][NMeDab](Ac)L[Phe(3,4-Cl2)]-NH2)", "values": [{"measurement": "MIC (µg/ml)", "setting": "[5]", "value": "2.3 to 4.6", "unit": "µg/mL"}, {"measurement": "MIC µM", "setting": "[5]", "value": "2 to 4", "unit": "µM"}, {"measurement": "MIC", "setting": "[6]; 168", "value": 4, "unit": "µM"}, {"measurement": "MIC", "setting": "[6]; MH broth, 37° C., 18-20 hours", "value": 4.6, "unit": "µg/mL"}, {"measurement": "MIC", "setting": "[7]", "value": "4 to 8", "unit": "µM"}, {"measurement": "MIC", "setting": "[7]; MH broth, 37° C., 18-20 hours", "value": "4.6 to 9.2", "unit": "µg/mL"}]}, {"smiles": "CC(=O)N[C@@H](CCC(N)=O)C(=O)N[C@@H](CC1CCCCC1)C(=O)N[C@@H](CC(=O)O)C(=O)N[C@@H](CC(C)C)C(=O)N1[C@H](C(=O)N[C@@H](Cc2ccc(Cl)c(Cl)c2)C(=O)O)C[C@@H]2CCCC[C@@H]21", "note": "[P50] (Ac-Q[Cha]DL[Oic][Phe(3,4-Cl2)]-OH)", "values": [{"measurement": "ΔG (kcal mol^-1)", "setting": "[1]; ITC at 25° C.", "value": "-10.1 (± 0.2) kcal mol^-1"}, {"measurement": "Kd", "setting": "[1]; [10]", "value": 39, "unit": "nM"}, {"measurement": "Kd", "setting": "[1]; [8]", "value": 39, "unit": "nM"}, {"measurement": "kon", "setting": "[1]; read-out: kon (M^-1 s^-1)", "value": 60000, "unit": "M⁻¹ s⁻¹"}, {"measurement": "Kd", "setting": "[2]; affinities (Kd in nM), P. aeruginosa", "value": 20, "unit": "nM"}, {"measurement": "Kd", "setting": "[3]", "value": 70, "unit": "nM"}]}]}
